SMILES strings stand for the structures. Some results are limits rather than exact numbers.

For experiment [1], the target named is T1, HER2 wildtype (WT) protein (Homo sapiens, UniProt P04626).
T1 construct: BT474 and N87 cell lines which endogenously overexpress the HER2 wildtype (WT) protein; endogenous in cells; host or cells: BT474, N87
In words: HER2 signaling (pHER2 Tyr1248/total HER2 MSD) in BT474 cells. It counts as cell-based. The settings on record: 1.5 hr compound, 1% FBS. In a few lines:
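BT474, N87 (HER2 WT) and NCI-H1781 (HER2 G776delinsVC) cells were treated for 1.5 h at 37° C in 1% FBS medium with compound at 0.0005–1.1 μM. pHER2 Tyr1248 was measured by MSD on whole-cell lysates and normalized to total HER2 as % DMSO. EC50 came from a variable-slope sigmoidal fit.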

The target of a further experiment is EGFR (Homo sapiens, UniProt P00533). Put plainly: EGFR signaling (pEGFR Tyr1068/total EGFR MSD) in A431 cells. The settings on record: for EC50: A431 cells, read-out: A431 pEGFR EC50; for Selectivity A431 EC50/BT474 EC50: ratio A431 pEGFR EC50 to BT474 pHER2 EC50; for Selectivity A431 EC50/HEKYVMA EC50: ratio A431 pEGFR EC50 to HEK YVMA pHER2 EC50. It counts as cell-based. On the set-up: endogenous in cells; host or cells: A431, N87. In a few lines: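 Serum-starved A431 cells were pretreated 1.5 h in 1% FBS with compound (0.005–10 μM, 0.1% DMSO), then stimulated with 100 ng/mL human EGF for 10 min. Lysate pEGFR Tyr1068 was measured by MSD and normalized to total EGFR as % DMSO control; EC50 from variable-slope sigmoidal fit.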
EGFR, sequence (P00533 25-1210): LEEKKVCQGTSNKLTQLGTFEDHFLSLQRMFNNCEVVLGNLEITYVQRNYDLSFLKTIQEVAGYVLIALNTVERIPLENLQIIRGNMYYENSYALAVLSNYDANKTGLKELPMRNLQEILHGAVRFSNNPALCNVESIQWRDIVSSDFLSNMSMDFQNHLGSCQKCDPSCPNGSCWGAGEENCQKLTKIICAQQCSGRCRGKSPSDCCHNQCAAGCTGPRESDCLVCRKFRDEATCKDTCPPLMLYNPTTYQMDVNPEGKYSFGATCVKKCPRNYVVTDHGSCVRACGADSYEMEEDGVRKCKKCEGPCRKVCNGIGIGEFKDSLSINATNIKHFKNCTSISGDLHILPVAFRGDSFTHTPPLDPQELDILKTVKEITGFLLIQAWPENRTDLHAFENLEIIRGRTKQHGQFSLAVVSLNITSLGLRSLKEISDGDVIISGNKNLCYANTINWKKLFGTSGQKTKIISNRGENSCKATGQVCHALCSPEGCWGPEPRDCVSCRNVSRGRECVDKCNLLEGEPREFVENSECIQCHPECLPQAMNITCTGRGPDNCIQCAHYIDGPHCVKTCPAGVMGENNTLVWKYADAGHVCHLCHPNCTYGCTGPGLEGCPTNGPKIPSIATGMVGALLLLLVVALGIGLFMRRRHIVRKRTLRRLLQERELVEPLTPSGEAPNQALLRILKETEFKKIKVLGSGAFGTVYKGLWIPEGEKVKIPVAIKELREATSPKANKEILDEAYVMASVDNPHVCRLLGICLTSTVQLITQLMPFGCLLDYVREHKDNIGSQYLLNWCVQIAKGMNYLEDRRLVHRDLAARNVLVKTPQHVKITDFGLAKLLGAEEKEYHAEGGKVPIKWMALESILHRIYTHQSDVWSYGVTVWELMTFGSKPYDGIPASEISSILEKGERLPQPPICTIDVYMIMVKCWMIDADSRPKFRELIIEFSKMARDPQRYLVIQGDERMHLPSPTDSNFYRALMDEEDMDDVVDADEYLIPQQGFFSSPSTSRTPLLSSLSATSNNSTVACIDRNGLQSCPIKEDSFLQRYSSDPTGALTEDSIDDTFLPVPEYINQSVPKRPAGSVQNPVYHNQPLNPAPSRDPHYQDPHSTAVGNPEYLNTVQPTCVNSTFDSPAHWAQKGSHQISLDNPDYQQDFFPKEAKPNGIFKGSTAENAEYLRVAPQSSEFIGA

T1 sequence (P04626 23-1255): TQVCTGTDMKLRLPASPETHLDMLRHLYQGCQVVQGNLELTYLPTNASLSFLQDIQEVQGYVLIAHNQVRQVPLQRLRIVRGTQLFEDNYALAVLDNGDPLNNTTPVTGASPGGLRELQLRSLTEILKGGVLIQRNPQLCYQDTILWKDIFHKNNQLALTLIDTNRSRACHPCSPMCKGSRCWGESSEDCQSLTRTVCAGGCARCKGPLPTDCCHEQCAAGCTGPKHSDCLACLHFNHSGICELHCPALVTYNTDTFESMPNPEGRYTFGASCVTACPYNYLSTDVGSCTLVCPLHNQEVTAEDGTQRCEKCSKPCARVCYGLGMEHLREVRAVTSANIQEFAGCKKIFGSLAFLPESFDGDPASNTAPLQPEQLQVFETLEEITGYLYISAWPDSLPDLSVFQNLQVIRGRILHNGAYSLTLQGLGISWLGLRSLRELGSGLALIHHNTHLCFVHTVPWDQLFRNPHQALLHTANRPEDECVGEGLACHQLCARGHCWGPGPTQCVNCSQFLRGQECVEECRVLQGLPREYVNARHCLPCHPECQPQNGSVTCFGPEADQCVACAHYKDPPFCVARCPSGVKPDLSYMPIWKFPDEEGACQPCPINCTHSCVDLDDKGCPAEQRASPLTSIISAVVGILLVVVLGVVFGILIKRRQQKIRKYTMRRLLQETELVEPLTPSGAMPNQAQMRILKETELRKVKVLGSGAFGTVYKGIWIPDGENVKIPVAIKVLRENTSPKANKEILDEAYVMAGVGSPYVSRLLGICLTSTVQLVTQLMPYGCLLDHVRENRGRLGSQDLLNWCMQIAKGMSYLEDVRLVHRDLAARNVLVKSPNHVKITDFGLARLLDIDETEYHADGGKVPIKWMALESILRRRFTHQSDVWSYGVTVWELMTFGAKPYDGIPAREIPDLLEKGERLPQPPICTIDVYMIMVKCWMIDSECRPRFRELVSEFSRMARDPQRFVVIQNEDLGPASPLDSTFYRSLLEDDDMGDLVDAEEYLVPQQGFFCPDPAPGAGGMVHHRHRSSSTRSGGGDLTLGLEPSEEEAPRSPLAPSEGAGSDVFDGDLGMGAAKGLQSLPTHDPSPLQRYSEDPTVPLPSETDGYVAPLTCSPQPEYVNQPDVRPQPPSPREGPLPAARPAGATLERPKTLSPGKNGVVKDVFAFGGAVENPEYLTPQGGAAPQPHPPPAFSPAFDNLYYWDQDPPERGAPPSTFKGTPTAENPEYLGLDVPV

The compound `Cc1ccc(Oc2ccc(Nc3ncnc4sc5c(c34)CCN(C(=O)/C=C/CNC34CCC(C#N)(CC3)CC4)C5)cc2C)cn1` [Compound 72] had a half-maximal effective concentration (EC50) in experiment [1] below 100 nM. Moreover, on EGFR, the EC50 was below 100 nM; the “Selectivity A431 EC50/BT474 EC50” value is “D (D: ≥ 5 and < 10)”; the “Selectivity A431 EC50/HEKYVMA EC50” value was “E (E: >1 and < 5)”.
In the case of `Cc1ccc(Oc2ccc(Nc3ncnc4sc5c(c34)CCN(C(=O)/C=C/CN3CCC(n4ccnc4)CC3)C5)cc2C)cn1` [Compound 62], the half-maximal effective concentration (EC50) in experiment [1] is below 100 nM. On EGFR, the EC50 was in the range of 100 to 1000 nM; the “Selectivity A431 EC50/BT474 EC50” value was “B (B: ≥ 20 and < 100)”; the “Selectivity A431 EC50/HEKYVMA EC50” value was “E (E: >1 and < 5)”.
The compound `Cc1cc(Nc2ncnc3sc4c(c23)CCN(C(=O)/C=C/CN2CC3C(CO)C3C2)C4)ccc1Oc1ccc2ncnn2c1` (centres unmarked) [Compound 81] gave an EC50 in experiment [1] below 100 nM. On EGFR, the EC50 lay within 100 to 1000 nM; the “Selectivity A431 EC50/BT474 EC50” value is “B (B: ≥ 20 and < 100)”; the “Selectivity A431 EC50/HEKYVMA EC50” value is “C (C: ≥ 10 and < 20)”.
As for `CCOC/C=C/C(=O)N1CCc2c(sc3ncnc(Nc4ccc(Oc5ccc(C)nc5)c(C)c4)c23)C1` [Compound 96, (E)-4-ethoxy-1-(4-((3-methyl-4-((6-methylpyridin-3-yl)oxy)phenyl)amino)-5,8-dihydropyrido[4′,3′:4,5]thieno[2,3-d]pyrimidin-7(6H)-yl)but-2-en-1-one], the EC50 in experiment [1] is below 100 nM. Further, at EGFR, the EC50 fell in the range of 100 to 1000 nM; the “Selectivity A431 EC50/BT474 EC50” value is “C (C: ≥ 10 and < 20)”; the “Selectivity A431 EC50/HEKYVMA EC50” value was “D (D: ≥ 5 and < 10)”.
With `Cc1ncc(Oc2ccc(Nc3ncnc4sc5c(c34)CCN(C(=O)/C=C/CN(C)C)C5)cc2C)cn1` [Compound 21, (E)-4-(dimethylamino)-1-(4-((3-methyl-4-((2-methylpyrimidin-5-yl)oxy)phenyl)amino)-5,8-dihydropyrido[4′,3′:4,5]thieno[2,3-d]pyrimidin-7(6H)-yl)but-2-en-1-one], in experiment [1], the EC50 was below 100 nM. In addition, at EGFR, the EC50 was in the range of 100 to 1000 nM; the “Selectivity A431 EC50/BT474 EC50” value is “B (B: ≥ 20 and < 100)”; the “Selectivity A431 EC50/HEKYVMA EC50” value is “B (B: ≥ 20 and < 100)”.
As to `Cc1ccc(Oc2ccc(Nc3ncnc4sc5c(c34)CCN(C(=O)/C=C/CN3CCn4cc(C(F)(F)F)nc4C3)C5)cc2C)cn1` [Compound 61], the EC50 in experiment [1] was in the range of 350 to 1000 nM. For the same compound, on EGFR, the EC50 was above 10000 nM; the “Selectivity A431 EC50/BT474 EC50” value was “B (B: ≥ 20 and < 100)”; the “Selectivity A431 EC50/HEKYVMA EC50” value is “C (C: ≥ 10 and < 20)”.
Compound `CON(C)C/C=C/C(=O)N1CCc2c(sc3ncnc(Nc4ccc(Oc5ccc(C)nc5)c(C)c4)c23)C1` [Compound 56] returned an EC50 in experiment [1] of 350 to 1000 nM. On EGFR, the EC50 was 1000 to 10000 nM; the “Selectivity A431 EC50/BT474 EC50” value is “C (C: ≥ 10 and < 20)”; the “Selectivity A431 EC50/HEKYVMA EC50” value is “B (B: ≥ 20 and < 100)”.
In turn, `Cc1ccc(Oc2ccc(Nc3ncnc4sc5c(c34)CCN(C(=O)/C=C/CN3CCC(O)C3)C5)cc2C)cn1` (centres unmarked) [Compound 74] yielded an EC50 in experiment [1] below 100 nM. At EGFR, the half-maximal effective concentration (EC50) is 100 to 1000 nM; the “Selectivity A431 EC50/BT474 EC50” value was “D (D: ≥ 5 and < 10)”; the “Selectivity A431 EC50/HEKYVMA EC50” value was “D (D: ≥ 5 and < 10)”.
Regarding `Cc1ccc(Oc2ccc(Nc3ncnc4sc5c(c34)CCN(C(=O)/C=C/CN3CCN4C(=O)CCC4C3)C5)cc2C)cn1` (centres unmarked) [Compound 58], in experiment [1], the EC50 lay in the range of 100 to 350 nM. For the same compound, on EGFR, the EC50 was in the range of 1000 to 10000 nM; the “Selectivity A431 EC50/BT474 EC50” value is “C (C: ≥ 10 and < 20)”; the “Selectivity A431 EC50/HEKYVMA EC50” value is “D (D: ≥ 5 and < 10)”.
Compound `Cc1ccc(Oc2ccc(Nc3ncnc4sc5c(c34)CCN(C(=O)/C=C/CN[C@H]3CC[C@H](OC(F)F)CC3)C5)cc2C)cn1` [Compound 69] came in with a 50% effective concentration (EC50) in experiment [1] below 100 nM. For the same compound, on EGFR, the EC50 is below 100 nM; the “Selectivity A431 EC50/BT474 EC50” value was “A (A: ≥100)”; the “Selectivity A431 EC50/HEKYVMA EC50” value was “D (D: ≥ 5 and < 10)”.
`Cc1ccc(Oc2ccc(Nc3ncnc4sc5c(c34)CCN(C(=O)/C=C/CNCc3ccsc3)C5)cc2C)cn1` [Compound 52]: the EC50 in experiment [1] is below 100 nM. In addition, at EGFR, the EC50 was below 100 nM; the “Selectivity A431 EC50/BT474 EC50” value was “D (D: ≥ 5 and < 10)”; the “Selectivity A431 EC50/HEKYVMA EC50” value was “C (C: ≥ 10 and < 20)”.
Regarding `Cc1ccc(Oc2ccc(Nc3ncnc4sc5c(c34)CCN(C(=O)/C=C/CNC3CC3)C5)cc2C)cn1` [Compound 40], the EC50 in experiment [1] was below 100 nM. At EGFR, the 50% effective concentration (EC50) is below 100 nM; the “Selectivity A431 EC50/BT474 EC50” value is “B (B: ≥ 20 and < 100)”; the “Selectivity A431 EC50/HEKYVMA EC50” value is “B (B: ≥ 20 and < 100)”.
With `Cc1ccc(Oc2ccc(Nc3ncnc4sc5c(c34)CCN(C(=O)/C=C/CN3CC=CCC3)C5)cc2C)cn1` [Compound 55], the EC50 in experiment [1] was below 100 nM. On EGFR, the EC50 fell in the range of 100 to 1000 nM; the “Selectivity A431 EC50/BT474 EC50” value was “B (B: ≥ 20 and < 100)”; the “Selectivity A431 EC50/HEKYVMA EC50” value is “B (B: ≥ 20 and < 100)”.
Turning to `Cc1ccc(Oc2ccc(Nc3ncnc4sc5c(c34)CCN(C(=O)/C=C/CN3CC(O)C3)C5)cc2C)cn1` [Compound 53], the EC50 in experiment [1] is below 100 nM. Besides, at EGFR, the EC50 was 1000 to 10000 nM; the “Selectivity A431 EC50/BT474 EC50” value was “C (C: ≥ 10 and < 20)”; the “Selectivity A431 EC50/HEKYVMA EC50” value was “D (D: ≥ 5 and < 10)”.
The compound `Cc1ccc(Oc2ccc(Nc3ncnc4sc5c(c34)CCN(C(=O)/C=C/CNCCO)C5)cc2C)cn1` [Compound 65] returned an EC50 in experiment [1] below 100 nM. Also, at EGFR, the EC50 was 100 to 1000 nM; the “Selectivity A431 EC50/BT474 EC50” value was “D (D: ≥ 5 and < 10)”; the “Selectivity A431 EC50/HEKYVMA EC50” value was “E (E: >1 and < 5)”.
Turning to `COc1ccc(Oc2ccc(Nc3ncnc4sc5c(c34)CCN(C(=O)/C=C/CN(C)C)C5)cc2C)cn1` [Compound 95, (E)-4-(Dimethylamino)-1-(4-((4-((6-methoxypyridin-3-yl)oxy)-3-methylphenyl)amino)-5,6-dihydropyrido[4′,3′:4,5]thieno[2,3-d]pyrimidin-7(8H)-yl)but-2-en-1-one], the EC50 in experiment [1] was below 100 nM. At EGFR, the 50% effective concentration (EC50) lay within 100 to 1000 nM; the “Selectivity A431 EC50/BT474 EC50” value is “D (D: ≥ 5 and < 10)”; the “Selectivity A431 EC50/HEKYVMA EC50” value is “C (C: ≥ 10 and < 20)”.
Regarding `Cc1cc(Nc2ncnc3sc4c(c23)CCN(C(=O)/C=C/CN(C)C)C4)ccc1Oc1ccc2cn[nH]c2c1` [Compound 23, (E)-1-(4-((4-((1H-indazol-6-yl)oxy)-3-methylphenyl)amino)-5,8-dihydropyrido[4′,3′:4,5]thieno[2,3-d]pyrimidin-7(6H)-yl)-4-(dimethylamino)but-2-en-1-one], the concentration giving a half-maximal response (EC50) in experiment [1] was below 100 nM. Besides, on EGFR, the EC50 is below 100 nM; the “Selectivity A431 EC50/BT474 EC50” value is “D (D: ≥ 5 and < 10)”; the “Selectivity A431 EC50/HEKYVMA EC50” value is “E (E: >1 and < 5)”.
`Cc1cc(Nc2ncnc3sc4c(c23)CCN(C(=O)/C=C/CN2CC(C)(C)OC(C)(C)C2)C4)ccc1Oc1ccc2ncnn2c1` [Compound 84] had an EC50 in experiment [1] below 100 nM. Further, on EGFR, the EC50 was above 10000 nM; the “Selectivity A431 EC50/BT474 EC50” value was “A (A: ≥100)”; the “Selectivity A431 EC50/HEKYVMA EC50” value was “B (B: ≥ 20 and < 100)”.
`Cc1cc(Nc2ncnc3sc4c(c23)CCN(C(=O)/C=C/CN(C)C)C4)ccc1Oc1ccc2ncnn2c1` [Compound 3, (E)-1-(4-((4-([1,2,4]triazolo[1,5-a]pyridin-6-yloxy)-3-methylphenyl)amino)-5,8-dihydropyrido[4′,3′:4,5]thieno[2,3-d]pyrimidin-7(6H)-yl)-4-(dimethylamino)but-2-en-1-one] gave a concentration giving a half-maximal response (EC50) in experiment [1] below 100 nM. On EGFR, the EC50 was 100 to 1000 nM; the “Selectivity A431 EC50/BT474 EC50” value is “B (B: ≥ 20 and < 100)”; the “Selectivity A431 EC50/HEKYVMA EC50” value is “E (E: >1 and < 5)”.
Turning to `Cc1ccc(Oc2ccc(Nc3ncnc4sc5c(c34)CN(C(=O)/C=C/CN(C)C)C5)cc2C)cn1` [Compound 99, (E)-4-(dimethylamino)-1-(4-((3-methyl-4-((6-methylpyridin-3-yl)oxy)phenyl)amino)-5,7-dihydro-6H-pyrrolo[3′,4′:4,5]thieno[2,3-d]pyrimidin-6-yl)but-2-en-1-one], the EC50 in experiment [1] is below 100 nM. Moreover, at EGFR, the half-maximal effective concentration (EC50) is 100 to 1000 nM; the “Selectivity A431 EC50/BT474 EC50” value was “B (B: ≥ 20 and < 100)”; the “Selectivity A431 EC50/HEKYVMA EC50” value was “B (B: ≥ 20 and < 100)”.
`Cc1ccc(Oc2ccc(Nc3ncnc4sc5c(c34)CCN(C(=O)/C=C/CN[C@H]3CCC[C@H](O)C3)C5)cc2C)cn1` [Compound 73] showed an EC50 in experiment [1] below 100 nM. Further, on EGFR, the concentration for a half-maximal effect (EC50) is 100 to 1000 nM; the “Selectivity A431 EC50/BT474 EC50” value was “D (D: ≥ 5 and < 10)”; the “Selectivity A431 EC50/HEKYVMA EC50” value was “E (E: >1 and < 5)”.
`CNC(=O)CNC/C=C/C(=O)N1CCc2c(sc3ncnc(Nc4ccc(Oc5ccc(C)nc5)c(C)c4)c23)C1` [Compound 39]: in experiment [1], the EC50 lay in the range of 100 to 350 nM. Besides, on EGFR, the 50% effective concentration (EC50) lay in the range of 1000 to 10000 nM; the “Selectivity A431 EC50/BT474 EC50” value was “C (C: ≥ 10 and < 20)”; the “Selectivity A431 EC50/HEKYVMA EC50” value is “D (D: ≥ 5 and < 10)”.
`CCN1CCN(C/C=C/C(=O)N2CCc3c(sc4ncnc(Nc5ccc(Oc6ccc(C)nc6)c(C)c5)c34)C2)CC1` [Compound 46] showed an EC50 in experiment [1] below 100 nM. Further, at EGFR, the concentration for a half-maximal effect (EC50) was 1000 to 10000 nM; the “Selectivity A431 EC50/BT474 EC50” value is “B (B: ≥ 20 and < 100)”; the “Selectivity A431 EC50/HEKYVMA EC50” value was “C (C: ≥ 10 and < 20)”.

In general, EC50 refers to the concentration at which the effect is half-maximal.
